Experimental data as given in the supplement of paper PMC10307832.

Legend:
Assay in all cases: relative viability (nuclei count vs DMSO), 5 days (fraction); higher = more cells survive
[1] = compound: NS(=O)(=O)OC[C@@H]1C[C@@H](n2ccc3c(N[C@H]4CCc5ccccc54)ncnc32)C[C@@H]1O [MLN4924] + Nc1nc2[nH]cc(CCc3ccc(C(=O)N[C@@H](CCC(=O)O)C(=O)O)cc3)c2c(=O)[nH]1 [Pemetrexed] (partner 0.2 µM)
Method in brief: (§1)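 Relative viability was taken as the ratio of nuclei in treated wells to nuclei in vehicle wells. Lung cancer cell lines in 1536-well plates received compounds by pin tool one day after seeding, either one drug alone or a fixed anchor-drug dose plus five library-drug doses (not always all listed) in √10 steps. Nuclei were counted on 4× images after 5 days of treatment, and values are medians of duplicate plates.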

[2] = compound: NS(=O)(=O)OC[C@@H]1C[C@@H](n2ccc3c(N[C@H]4CCc5ccccc54)ncnc32)C[C@@H]1O [MLN4924] + CCNC(=O)c1noc(-c2cc(C(C)C)c(O)cc2O)c1-c1ccc(CN2CCOCC2)cc1 [Luminespib] (partner 0.01 µM)
Method in brief: as §1

[3] = compound: CC[C@H](C)N1C=C(C2=C(C=C(C=C21)C3=CN=C(C=C3)N4CCNCC4)C(=O)NCC5=C(C=C(NC5=O)C)C)C [GSK126] + C[C@@H](Oc1cc(-c2cnn(C3CCNCC3)c2)cnc1N)c1c(Cl)ccc(F)c1Cl [Crizotinib] (partner 1 µM)
Method in brief: as §1

[4] = compound: NS(=O)(=O)OC[C@@H]1C[C@@H](n2ccc3c(N[C@H]4CCc5ccccc54)ncnc32)C[C@@H]1O [MLN4924] + C[C@@H](Oc1cc(-c2cnn(C3CCNCC3)c2)cnc1N)c1c(Cl)ccc(F)c1Cl [Crizotinib] (partner 1 µM)
Method in brief: as §1

## NCI-H2023
[1]; first compound 0.04 µM
  relative viability: 0.219
[1]; first compound 0.1265 µM
  relative viability: 0.234
[1]; first compound 0.4 µM
  relative viability: 0.123
[1]; first compound 1.265 µM
  relative viability: 0.0635
[1]; first compound 4 µM
  relative viability: 0.09
[2]; first compound 0.04 µM
  relative viability: 0.651
[2]; first compound 0.1265 µM
  relative viability: 0.539
[2]; first compound 0.4 µM
  relative viability: 0.179
[2]; first compound 1.265 µM
  relative viability: 0.0673
[2]; first compound 4 µM
  relative viability: 0.0714
[3]; first compound 0.08 µM
  relative viability: 0.839
[3]; first compound 0.253 µM
  relative viability: 0.678
[3]; first compound 0.8 µM
  relative viability: 0.747
[3]; first compound 2.53 µM
  relative viability: 0.74
[3]; first compound 8 µM
  relative viability: 0.747
[4]; first compound 0.04 µM
  relative viability: 0.579
[4]; first compound 0.1265 µM
  relative viability: 0.918
[4]; first compound 0.4 µM
  relative viability: 0.298
[4]; first compound 1.265 µM
  relative viability: 0.0965
[4]; first compound 4 µM
  relative viability: 0.0683

## NCI-H2085
[1]; first compound 0.04 µM
  relative viability: 0.916
[1]; first compound 0.1265 µM
  relative viability: 0.91
[1]; first compound 0.4 µM
  relative viability: 0.888
[1]; first compound 1.265 µM
  relative viability: 0.882
[1]; first compound 4 µM
  relative viability: 0.451
[2]; first compound 0.04 µM
  relative viability: 0.422
[2]; first compound 0.1265 µM
  relative viability: 0.407
[2]; first compound 0.4 µM
  relative viability: 0.534
[2]; first compound 1.265 µM
  relative viability: 0.375
[2]; first compound 4 µM
  relative viability: 0.311
[3]; first compound 0.08 µM
  relative viability: 0.879
[3]; first compound 0.253 µM
  relative viability: 0.966
[3]; first compound 0.8 µM
  relative viability: 0.951
[3]; first compound 2.53 µM
  relative viability: 0.778
[3]; first compound 8 µM
  relative viability: 0.887
[4]; first compound 0.04 µM
  relative viability: 0.702
[4]; first compound 0.1265 µM
  relative viability: 0.83
[4]; first compound 0.4 µM
  relative viability: 0.662
[4]; first compound 1.265 µM
  relative viability: 0.676
[4]; first compound 4 µM
  relative viability: 0.35

## NCI-H2087
[1]; first compound 0.04 µM
  relative viability: 0.639
[1]; first compound 0.1265 µM
  relative viability: 0.71
[1]; first compound 0.4 µM
  relative viability: 0.562
[1]; first compound 1.265 µM
  relative viability: 0.118
[1]; first compound 4 µM
  relative viability: 0.0987
[2]; first compound 0.04 µM
  relative viability: 0.143
[2]; first compound 0.1265 µM
  relative viability: 0.148
[2]; first compound 0.4 µM
  relative viability: 0.139
[2]; first compound 1.265 µM
  relative viability: 0.129
[2]; first compound 4 µM
  relative viability: 0.0909
[3]; first compound 0.08 µM
  relative viability: 0.861
[3]; first compound 0.253 µM
  relative viability: 0.985
[3]; first compound 0.8 µM
  relative viability: 0.888
[3]; first compound 2.53 µM
  relative viability: 0.821
[3]; first compound 8 µM
  relative viability: 0.867
[4]; first compound 0.04 µM
  relative viability: 0.696
[4]; first compound 0.1265 µM
  relative viability: 0.802
[4]; first compound 0.4 µM
  relative viability: 0.411
[4]; first compound 1.265 µM
  relative viability: 0.224
[4]; first compound 4 µM
  relative viability: 0.139

## NCI-H2126
[1]; first compound 0.04 µM
  relative viability: 0.659
[1]; first compound 0.1265 µM
  relative viability: 0.676
[1]; first compound 0.4 µM
  relative viability: 0.435
[1]; first compound 1.265 µM
  relative viability: 0.278
[1]; first compound 4 µM
  relative viability: 0.281
[2]; first compound 0.04 µM
  relative viability: 0.898
[2]; first compound 0.1265 µM
  relative viability: 0.843
[2]; first compound 0.4 µM
  relative viability: 0.609
[2]; first compound 1.265 µM
  relative viability: 0.472
[2]; first compound 4 µM
  relative viability: 0.309
[3]; first compound 0.08 µM
  relative viability: 1.07
[3]; first compound 0.253 µM
  relative viability: 1.04
[3]; first compound 0.8 µM
  relative viability: 1.05
[3]; first compound 2.53 µM
  relative viability: 0.992
[3]; first compound 8 µM
  relative viability: 0.987
[4]; first compound 0.04 µM
  relative viability: 0.912
[4]; first compound 0.1265 µM
  relative viability: 0.911
[4]; first compound 0.4 µM
  relative viability: 0.789
[4]; first compound 1.265 µM
  relative viability: 0.397
[4]; first compound 4 µM
  relative viability: 0.256

## NCI-H2170
[1]; first compound 0.04 µM
  relative viability: 0.275
[1]; first compound 0.1265 µM
  relative viability: 0.311
[1]; first compound 0.4 µM
  relative viability: 0.271
[1]; first compound 1.265 µM
  relative viability: 0.129
[1]; first compound 4 µM
  relative viability: 0.135
[2]; first compound 0.04 µM
  relative viability: 0.631
[2]; first compound 0.1265 µM
  relative viability: 0.443
[2]; first compound 0.4 µM
  relative viability: 0.269
[2]; first compound 1.265 µM
  relative viability: 0.172
[2]; first compound 4 µM
  relative viability: 0.147
[3]; first compound 0.08 µM
  relative viability: 1.32
[3]; first compound 0.253 µM
  relative viability: 1.15
[3]; first compound 0.8 µM
  relative viability: 1.16
[3]; first compound 2.53 µM
  relative viability: 1.09
[3]; first compound 8 µM
  relative viability: 1.23
[4]; first compound 0.04 µM
  relative viability: 1.2
[4]; first compound 0.1265 µM
  relative viability: 0.599
[4]; first compound 0.4 µM
  relative viability: 0.507
[4]; first compound 1.265 µM
  relative viability: 0.16
[4]; first compound 4 µM
  relative viability: 0.185

## NCI-H2228
[1]; first compound 0.04 µM
  relative viability: 0.377
[1]; first compound 0.1265 µM
  relative viability: 0.32
[1]; first compound 0.4 µM
  relative viability: 0.213
[1]; first compound 1.265 µM
  relative viability: 0.0983
[1]; first compound 4 µM
  relative viability: 0.119
[2]; first compound 0.04 µM
  relative viability: 0.178
[2]; first compound 0.1265 µM
  relative viability: 0.181
[2]; first compound 0.4 µM
  relative viability: 0.195
[2]; first compound 1.265 µM
  relative viability: 0.19
[2]; first compound 4 µM
  relative viability: 0.113
[3]; first compound 0.08 µM
  relative viability: 0.547
[3]; first compound 0.253 µM
  relative viability: 0.492
[3]; first compound 0.8 µM
  relative viability: 0.368
[3]; first compound 2.53 µM
  relative viability: 0.573
[3]; first compound 8 µM
  relative viability: 0.458
[4]; first compound 0.1265 µM
  relative viability: 0.443
[4]; first compound 0.4 µM
  relative viability: 0.4
[4]; first compound 1.265 µM
  relative viability: 0.192
[4]; first compound 4 µM
  relative viability: 0.226

## NCI-H2347
[1]; first compound 0.04 µM
  relative viability: 0.376
[1]; first compound 0.1265 µM
  relative viability: 0.438
[1]; first compound 0.4 µM
  relative viability: 0.369
[1]; first compound 1.265 µM
  relative viability: 0.396
[1]; first compound 4 µM
  relative viability: 0.36
[2]; first compound 0.04 µM
  relative viability: 0.397
[2]; first compound 0.1265 µM
  relative viability: 0.351
[2]; first compound 0.4 µM
  relative viability: 0.575
[2]; first compound 1.265 µM
  relative viability: 0.332
[2]; first compound 4 µM
  relative viability: 0.255
[3]; first compound 0.08 µM
  relative viability: 0.706
[3]; first compound 0.253 µM
  relative viability: 0.667
[3]; first compound 0.8 µM
  relative viability: 0.658
[3]; first compound 2.53 µM
  relative viability: 0.708
[3]; first compound 8 µM
  relative viability: 0.559
[4]; first compound 0.04 µM
  relative viability: 0.525
[4]; first compound 0.1265 µM
  relative viability: 0.53
[4]; first compound 0.4 µM
  relative viability: 0.484
[4]; first compound 1.265 µM
  relative viability: 0.42
[4]; first compound 4 µM
  relative viability: 0.412

## NCI-H2405
[1]; first compound 0.04 µM
  relative viability: 0.806
[1]; first compound 0.1265 µM
  relative viability: 0.863
[1]; first compound 0.4 µM
  relative viability: 0.44
[1]; first compound 1.265 µM
  relative viability: 0.187
[1]; first compound 4 µM
  relative viability: 0.193
[2]; first compound 0.04 µM
  relative viability: 0.608
[2]; first compound 0.1265 µM
  relative viability: 0.469
[2]; first compound 0.4 µM
  relative viability: 0.518
[2]; first compound 1.265 µM
  relative viability: 0.286
[2]; first compound 4 µM
  relative viability: 0.241
[3]; first compound 0.08 µM
  relative viability: 0.947
[3]; first compound 0.253 µM
  relative viability: 0.753
[3]; first compound 0.8 µM
  relative viability: 0.816
[3]; first compound 2.53 µM
  relative viability: 0.817
[3]; first compound 8 µM
  relative viability: 0.814
[4]; first compound 0.04 µM
  relative viability: 0.797
[4]; first compound 0.1265 µM
  relative viability: 0.667
[4]; first compound 0.4 µM
  relative viability: 0.478
[4]; first compound 1.265 µM
  relative viability: 0.266
[4]; first compound 4 µM
  relative viability: 0.242
